# Test results from article PMC5812247, “Engineering thermal stability and solvent tolerance of the soluble quinoprotein PedE from Pseudomonas putida KT2440 with a heterologous whole‐cell screening approach” (Microbial Biotechnology, 2017).
# Biological target: T1, PedE (Pseudomonas putida, UniProt Q88JH5)
# T1 construct: C-terminal 6xHis tag, expressed in E. coli BL21(DE3), purified by IMAC, PQQ/Ca2+-dependent periplasmic enzyme
# T1 sequence (Q88JH5 34-631): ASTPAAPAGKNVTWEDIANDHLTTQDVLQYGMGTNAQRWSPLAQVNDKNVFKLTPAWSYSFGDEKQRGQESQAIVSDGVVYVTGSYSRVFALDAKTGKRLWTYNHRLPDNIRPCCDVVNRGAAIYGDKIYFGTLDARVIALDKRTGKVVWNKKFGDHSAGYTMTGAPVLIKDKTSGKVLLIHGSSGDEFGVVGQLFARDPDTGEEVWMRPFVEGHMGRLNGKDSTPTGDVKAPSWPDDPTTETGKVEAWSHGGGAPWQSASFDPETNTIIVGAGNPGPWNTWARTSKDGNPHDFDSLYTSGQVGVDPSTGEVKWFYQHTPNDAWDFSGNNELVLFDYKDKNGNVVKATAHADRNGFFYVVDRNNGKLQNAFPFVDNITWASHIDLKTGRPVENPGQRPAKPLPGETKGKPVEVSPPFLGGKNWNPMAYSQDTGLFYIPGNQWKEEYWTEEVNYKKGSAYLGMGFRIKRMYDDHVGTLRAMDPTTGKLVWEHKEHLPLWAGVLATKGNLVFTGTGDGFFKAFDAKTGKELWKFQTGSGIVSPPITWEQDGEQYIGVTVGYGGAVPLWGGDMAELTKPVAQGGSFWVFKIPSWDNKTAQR
# Assay: residual activity after […] h at […]°C, apo vs PQQ/CaCl2-reconstituted enzyme
# Type: biochemical
# Details: reconstitution with 10 μM PQQ and 10 mM CaCl2, Tris pH 7.5; ethanol 10 mM as substrate
structure (smiles),measurement,value
O=C(O)c1cc(C(=O)O)c2c(n1)C(=O)C(=O)c1cc(C(=O)O)[nH]c1-2 [PQQ],"residual activity after 1 h at 45°C, apo vs PQQ/CaCl2-reconstituted enzyme",purified apo‐form of PedE is much less thermostable compared with the PQQ reconstituted form
